The source of these data is patent US20250228880A1, “REDOX-ACTIVE COMPOUNDS AND RELATED COMPOUNDS, COMPOSITIONS, METHODS AND SYSTEMS” (CALIFORNIA INSTITUTE OF TECHNOLOGY, priority 2008, published 2025).

Values joined by “and” are separate entries in the source; they are usually repeats but may differ in a detail not shown here. Equal entries are not always repeated. “Also recorded” adds a separate entry of the source. Where two headings read alike, the source gives them in different places.

In data set [1] the test system is P. aeruginosa PA14 Δphz mutant. Nature of the data set: Reduction by PA14 (colour change in survival control experiments without poised potential). The class given is cell-based, Pseudomonas aeruginosa. To be noted: intracellular reduction by Δphz cells.
The conditions of data set [2]: literature values (footnotes a, c, d, e); oxidized form; cited from earlier work.
Data set [3] relates to P. aeruginosa PA14 Δphz mutant. Nature of the data set: Anaerobic survival in bulk electrolysis bioreactor (viable cell counts, CFU). Type of data set: cell-based, Pseudomonas aeruginosa. The settings on record: for Support survival?: anaerobic survival of Δphz over 7 days, 10^9 cells/mL, 20 mM D-glucose, about 90 µM compound, electrode at +0.2 V vs. NHE, CFU on LB agar. The protocol:
Microbiological methods. P. aeruginosa strain UCBPP-PA14 with deletions of two redundant phenazine biosynthetic operons phzA1-G1 and phzA2-G2, hereafter referred to as the Δphz mutant, was cultivated aerobically at 37° C. in Luria-Bertani (LB) broth (Fisher Scientific) to stationary phase. A washing procedure using centrifugation to collect cell pellets and vortexing to resuspend cell pellets in sterile PBS buffer (recipe) was repeated twice. For centrifugation, the cultures were split into 50 mL sterile centrifuge tubes and centrifuged for 8 minutes at 6000 g, at 4° C. After washing, cell culture was concentrated by resuspending pellets in PBS buffer with one-tenth of original cultural volume. Optical density of this culture was measured at 500 nm using Beckman Coulter D U 800 spectrophotometer. Dilution was performed to yield the OD reading below 0.8. The culture aliquots were then transferred into electrochemical cells with oxygen-free minimal salt medium (20 mM glucose as the carbon source) to serve as the cultures electrochemical studies (see next section for details).
Survival experiments in electrochemical setup. Electrochemical measurements were performed with a Gamry G- potentiostat. All experiments were conducted in an O2— and H2— free glovebox (MBraun) at 30° C. and in the dark. All measured potentials were referenced to a Ag/AgCl electrode (RE-5B, BASi). Reported potentials were referenced to the Normal Hydrogen Electrode NHE (V vs. NHE=V vs. Ag/AgCl+207 mV) to permit comparisons with other studies. A graphite rod (6.15 mm dia ×152 mm long, Alfa Aesar) was used as the working electrode, and the operating surface area was 6 cm^2. The counter electrode was made from a platinum mesh (Alfa Aesar) soldered to a copper wire. The working electrode was in a sample compartment together with the reference electrode. The counter electrode was in another compartment isolated from the working electrode. The two compartments were joined by a fritted glass junction. The controlled potential bulk electrolysis was set at 0 V vs. Ag/AgCl. This potential is mild enough to only oxidize reduced phenazines, but not other components in the cultural medium.
To test whether phenazine electron shuttling can help P. aeruginosa survive, 100 µM phenazine, 20 mM glucose, high or low initial cell densities in the range of 10^9 cells/mL or 10^7 cells/mL were added to the medium to give total 100 mL suspension in the compartment along with the working and reference electrodes, and the potential was applied at 0 V (vs. Ag/AgCl) for 7 days. Cell suspension aliquots were taken as a function of time for viable colony counts. Current and charge transferred were recorded continuously. Cultures without phenazine, or without the potential applied, or without both were served as the controls. To confirm that glucose is used as the carbon source in the case of survival, experiments with or without glucose addition were compared.
To investigate the effect of redox-active small molecules on anaerobic survival of redox active organisms, Applicants tested the effect of redox-active molecule in P. aeruginosa PA14. In particular, Applicants assembled bulk electrolysis-based glass bioreactors housed within an O2— and H2— free glovebox (MBraun) and controlled by a multichannel potentiostat (Gamry, Series G 300) outside the glovebox. Each bioreactor held a graphite rod working electrode (Alfa Aesar) with an operating surface area of 6 cm^2, a Ag/AgCl reference electrode (BASi, RE-5B) with a constant potential of +0.207 V vs. the normal hydrogen electrode (NHE), and about 100 mL MOPS culture medium [100 mM MOPS at pH 7.2, 93 mM NH4Cl, 43 mM NaCl, 2.2 mM KH2PO4, 1 mM MgSO4, […]](modified from ref. (Palmer, K. L., L. M. Mashburn, P. K. Singh, and M. Whiteley. 2005. Cystic fibrosis sputum supports growth and cues key aspects of Pseudomonas aeruginosa physiology. Journal of Bacteriology 187:5267-5277)). […]

The nature of data set [4]: Reduction potential E0' (cyclic voltammetry). Type of data set: physicochemical. To be noted: measured in aqueous solution at pH 7 in this study (footnote b).
The test system of data set [5] is Pseudomonas aeruginosa PA14 phenazine null mutant. Nature of the data set: Colony morphology assay. The settings on record: pyocyanin added to the growth medium (50 μM HPLC-purified, 1% tryptone, 1% agar plates). Type of data set: cell-based. The procedure:
In particular, in FIG. 8 is shown how the phenazine null mutant forms smooth colonies in the presence of exogenous phenazines. […] Image was taken after 5 days.
Colony morphology assay: colony morphology assay was performed with Pseudomonas aeruginosa and Streptomyces coelicolor as described herein below: a) Pseudomonas aeruginosa PA 14: Strains were grown in LB medium to late exponential phase, then 10 μl were spotted onto 1% agar plates containing 10 g/L Tryptone Broth, supplemented with […] Congo Red and […] Coomassie Blue as described previously (L. Friedman, R. Kolter, Mot Microbial 51, 675 (2004)). Plates were incubated at room temperature. Colonies were imaged using an Epson Perfection 2400 Photo Scanner at 600 dpi resolution, Nikon stereomicroscope or a digital microscope (Proscope). b) Streptomyces coelicolor A3(2): 10 µl of a spore suspension in water was spotted onto plates with R5-medium. Plates were incubated at room temperature for six days. Colonies were imaged using a Nikon stereomicroscope.

On to `O=C(O)c1cccc2nc3ccccc3nc12` [PCA, phenazine-1-carboxylic acid], for which the “Reduction by PA14?” value in data set [1] is reported as “Yes”. For the same compound, the “E^0′ (vs. NHE)” value in data set [2] is −114^a mV. The “Support survival?” value in data set [3] is “promote anaerobic survival and Yes”.
In the case of `O=C(O)Cc1cc(O)ccc1O` [HMA, Homogentisic acid], in data set [3], the “Support survival?” value was “cannot support Δphz survival and No”.
As to `C[n+]1ccc(-c2cc[n+](C)cc2)cc1` [Paraquat], the entries for the “Reduction by PA14?” value in data set [1] and in data set [1] (listed as paraquat) were “No” and “cannot be reduced by Δphz”, respectively. For the same compound, the “E^0′ (vs. NHE)” value in data set [2] was −446 mV and −446^e mV. The “Support survival?” value in data set [3] is “No”; in data set [3] (listed as paraquat), “cannot support anaerobic survival of Δphz”.
Consider `CN(C)c1ccc2nc3ccc(=[N+](C)C)cc-3sc2c1` [MB, Methylene blue], for which the “Reduction by PA14?” value in data set [1] is “reduced intracellularly and Yes”. The “E^0′ (vs. NHE)” value is recorded as “+11 mV” in data set [2] and 0 mV in data set [4]. The “Support survival?” value in data set [3] is “cannot support Δphz survival and No”. Besides, the “drop of viable cells” value in data set [3] (regardless of bioreactor experimental conditions, 7 days) is 3 orders of magnitude.
For `Oc1cccc2nc3ccccc3nc12` [1-OHPHZ, 1-hydroxyphenazine], in data set [1], the “Reduction by PA14?” value was “Yes”. Moreover, the “E^0′ (vs. NHE)” value in data set [2] was −174^a mV. The “Support survival?” value in data set [3] is “promote anaerobic survival and Yes”.
On to `C[n+]1c2ccccc2nc2c([O-])cccc21` [PYO, Pyocyanin], for which the “Reduction by PA14?” value in data set [1] is given as “Yes”. Further, the “E^0′ (vs. NHE)” value in data set [2] was −40^a mV. In addition, the “colony morphology of the phenazine null mutant” value in data set [5] is recorded as “smooth compact colonies”. Besides, the “Support survival?” value in data set [3] is “promote anaerobic survival and Yes”. For the same compound, the “survival vs. growth at low cell density” value in data set [3] (viable cells at 10^7 CFU/mL, data not shown) is “supported only survival but not growth”. In data set [3] (without D-glucose, with PYO and the poised potential, by day 6), the “drop of viable cells from the original CFU” value is reported as 4 orders of magnitude.
Consider `O=C1c2ccc(S(=O)(=O)O)cc2C(=O)c2ccc(S(=O)(=O)O)cc21` [2,6-AQDS], for which the “Reduction by PA14?” value in data set [1] is recorded as “only a small portion of 2,6-AQDS was reduced; also recorded: Yes (very slowly)”. In addition, the “E^0′ (vs. NHE)” value in data set [2] is recorded as −184^d mV. Further, in data set [3], the “Support survival?” value is given as “No”.
